# Source: US20120027822A1, “Process for Producing Rapidly Disintegrating Spheroids (Pellets), Granules and/or Mixtures Thereof” (SPECIFAR S.A., priority 2009, published 2012)
# Legend:
# [1] = water; cited from earlier work
# [2] = Polymorph study by X-Ray Powder Diffraction (XRPD); type: physicochemical; conditions: XRPD of powder from spheroids of example 7a versus dihydrate and trihydrate patterns
# Experimental: All the formulations described in examples 7a-7h released the API quantitatively in 15 minutes. In addition, a polymorph study was performed and the crystal phase of Esomeprazole Mg powder deriving from the spheroids of example 7a was established through the application of the X-Ray Powder Diffraction (XRPD) technique. The recorded XRD patterns shown in FIG. 2 were compared against the respective patterns of the dihydrate and trihydrate forms provided by the manufacturer. […] None of the characteristic trihydrate reflections, marked with arrows in FIG. 2, could be observed.
crystal habit after the aqueous pelletization process [2],Compound,aqueous solubility class (US Pharmacopoeia terms) [1]
–,CCC1=C(C)CN(C(=O)NCCc2ccc(S(=O)(=O)NC(=O)N[C@H]3CC[C@H](C)CC3)cc2)C1=O [Glimepiride],practically insoluble
–,COc1ccc2nc([S@@+]([O-])Cc3ncc(C)c(OC)c3C)[nH]c2c1 [Esomeprazole],slightly soluble or insoluble
–,COc1ccc2[nH]c([S+]([O-])Cc3ncc(C)c(OC)c3C)nc2c1 (stereo not shown) [Omeprazole],very slightly soluble
–,COCCCOc1ccnc(C[S+]([O-])c2nc3ccccc3[nH]2)c1C (stereo not shown) [Rabeprazole],very soluble
–,COc1ccnc(C[S+]([O-])c2nc3ccc(OC(F)F)cc3[nH]2)c1OC (stereo not shown) [Pantoprazole],freely soluble
without deteriorating the crystal habit,COc1ccc2[n-]c([S@@+]([O-])Cc3ncc(C)c(OC)c3C)nc2c1.COc1ccc2[n-]c([S@@+]([O-])Cc3ncc(C)c(OC)c3C)nc2c1.O.O.[Mg+2] [Esomeprazole Magnesium Dihydrate],–
–,Cc1c(OCC(F)(F)F)ccnc1C[S+]([O-])c1nc2ccccc2[nH]1 (stereo not shown) [Lansoprazole],practically insoluble
